In BindingDB's records for doi:10.1021/jm970389+ (Abbott Laboratories, 1998):

Assay: Binding potency against Platelet activating factor (PAF) receptor using [3H]C18-PAF as radioligand on rabbit platelet membranes

Compared with `Cc1nc2cnccc2n1CC1CCN(C(=O)c2cn(C(=O)N(C)C)c3cc(-c4ccc(F)cc4)ccc23)CC1` [6-(4-Fluoro-phenyl)-3-[4-(2-methyl-imidazo[4,5-c]pyridin-1-ylmethyl)-piperidine-1-carbonyl]-indole-1-carboxylic acid dimethylamide], `Cc1nc2cnccc2n1Cc1csc(C(=O)c2cn(C(=O)N(C)C)c3cc(-c4ccc(F)cc4)ccc23)n1` [6-(4-Fluoro-phenyl)-3-[4-(2-methyl-imidazo[4,5-c]pyridin-1-ylmethyl)-thiazole-2-carbonyl]-indole-1-carboxylic acid dimethylamide] is 16-fold higher in Ki: 2.5 nM for the first, 39 nM for the second. The first binds more tightly here.

First: Cc1nc2ccncc2n1Cc1ccc(C(=O)c2cn(C(=O)N(C)C)c3cc(-c4ccc(F)cc4)ccc23)cc1 [6-(4-Fluoro-phenyl)-3-[4-(2-methyl-imidazo[4,5-c]pyridin-3-ylmethyl)-benzoyl]-indole-1-carboxylic acid dimethylamide]
Second: Cc1nc2ccn(Cc3ccc(C(=O)c4cn(C(=O)N(C)C)c5cc(-c6ccc(F)cc6)ccc45)cc3)cc-2n1 [6-(4-Fluoro-phenyl)-3-[4-(2-methyl-imidazo[4,5-c]pyridin-5-ylmethyl)-benzoyl]-indole-1-carboxylic acid dimethylamide]
The Ki of the first is lower: 610 nM for the first, greater than 1000 nM for the second.

`Cc1nc2cnccc2n1CCN1CCN(S(=O)(=O)c2cn(C(=O)N(C)C)c3cc(-c4ccc(F)cc4)ccc23)CC1` [6-(4-Fluoro-phenyl)-3-{4-[2-(2-methyl-imidazo[4,5-c]pyridin-1-yl)-ethyl]-piperazine-1-sulfonyl}-indole-1-carboxylic acid dimethylamide] and `Cc1nc2cnccc2n1Cc1ccc(C(=O)c2c[nH]c3cc(-c4ccc(F)cc4)ccc23)cc1` [[6-(4-Fluoro-phenyl)-1H-indol-3-yl]-[4-(2-methyl-imidazo[4,5-c]pyridin-1-ylmethyl)-phenyl]-methanone] are within 1.5-fold of each other in Ki: 53 nM for the first, 75 nM for the second.

Going from `COC(=O)c1cc(Br)cc2c1c(C(=O)c1ccc(Cn3c(C)nc4cnccc43)cc1)cn2C(=O)N(C)C` [6-Bromo-1-dimethylcarbamoyl-3-[4-(2-methyl-imidazo[4,5-c]pyridin-1-ylmethyl)-benzoyl]-1H-indole-4-carboxylic acid methyl ester] to `Cc1nc2cnccc2n1Cc1ccc(C(=O)c2cn(C(=O)N(C)C)c3cccc(OC(=O)N(C)C)c23)cc1` [Dimethyl-carbamic acid 1-dimethylcarbamoyl-3-[4-(2-methyl-imidazo[4,5-c]pyridin-1-ylmethyl)-benzoyl]-1H-indol-4-yl ester], the Ki rises from 1.4 nM to 3.6 nM (2.6-fold).

Going from `C#Cc1cccc2[nH]cc(C(=O)c3ccc(Cn4c(C)nc5cnccc54)c(F)c3)c12` [(4-Ethynyl-1H-indol-3-yl)-[3-fluoro-4-(2-methyl-imidazo[4,5-c]pyridin-1-ylmethyl)-phenyl]-methanone] to `Cc1nc2cnccc2n1Cc1ccc(C(=O)c2cn(C(=O)N(C)C)c3cccc(OC(=O)N(C)C)c23)cc1F` [Dimethyl-carbamic acid 1-dimethylcarbamoyl-3-[3-fluoro-4-(2-methyl-imidazo[4,5-c]pyridin-1-ylmethyl)-benzoyl]-1H-indol-4-yl ester], the Ki rises from 2.2 nM to 31 nM (14-fold).

Compared with `Cc1nc2cnccc2n1Cc1ccc(C(=O)c2c[nH]c3c(OCc4ccccc4)cccc23)cc1` [(7-Benzyloxy-1H-indol-3-yl)-[4-(2-methyl-imidazo[4,5-c]pyridin-1-ylmethyl)-phenyl]-methanone], `Cc1[nH]c2ccccc2c1C(=O)c1ccc(Cn2c(C)nc3cnccc32)cc1` [[4-(2-Methyl-imidazo[4,5-c]pyridin-1-ylmethyl)-phenyl]-(2-methyl-1H-indol-3-yl)-methanone] is 4-fold higher in Ki: 12 nM for the first, 48 nM for the second.

Assay: The compound was evaluated for its binding affinity against PAF receptor in rabbit platelet

`CC(=O)OC[n+]1cccc([C@H]2SCc3c(C(=O)c4cn(C(=O)N(C)C)c5cc(-c6ccc(F)cc6)ccc45)ccn32)c1` [1-Acetoxymethyl-3-{(R)-7-[1-dimethylcarbamoyl-6-(4-fluoro-phenyl)-1H-indole-3-carbonyl]-1H-pyrrolo[1,2-c]thiazol-3-yl}-pyridinium; chloride] showed a Ki of 3.8 nM.
